According to ChEMBL document CHEMBL1201862, “PubChem BioAssay data set” (2004):
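Grown in 96-well plates, cells were treated for 48 hours with each compound at five concentrations. Insufficient inhibition: endpoint recorded as highest concentration tested. GI50 marks 50% less growth.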 Calls of active or inactive are those of the source. Cut-off read from the data, not from the text of the source: active = GI50 up to about 1.1 µM and inactive = higher.

Assays:
Assay in all cases: growth of human tumour cells (NCI), 48 h
[1] = test system: TK-10
[2] = test system: HOP-18
[3] = test system: SR
[4] = test system: K562
[5] = test system: HCC 2998
[6] = test system: COLO 205
[7] = test system: SNB-19
[8] = test system: KM12
[9] = test system: A549
[10] = test system: ACHN
[11] = test system: HT-29
[12] = test system: RXF 393
[13] = test system: NCI-H522
[14] = test system: Malme-3M
[15] = test system: CAKI-1
[16] = test system: UO-31

Q: `COc1ccc(C(=O)NCCN(C)C)c2nc3ccccc3nc12` was tested. Which GI50 [1] did it give?
A: 5.18 µM (inactive)

Q: And the GI50 [2]?
A: > 30.8 µM (inactive)

Q: What about the GI50 [3] of the same compound?
A: 0.708 µM (active)

Q: What about the GI50 [4] of the same compound?
A: 2.05 µM (inactive)

Q: And the GI50 [5]?
A: 5.15 µM (inactive)

Q: What about the GI50 [6] of the same compound?
A: 3.46 µM (inactive)

Q: What about the GI50 [7] of the same compound?
A: 6.01 µM (inactive)

Q: What about the GI50 [8] of the same compound?
A: 4.82 µM (inactive)

Q: And the GI50 [9]?
A: 4.93 µM (inactive)

Q: And the GI50 [10]?
A: 2.79 µM (inactive)

Q: What about the GI50 [11] of the same compound?
A: 2.76 µM (inactive)

Q: And the GI50 [12]?
A: 11.4 µM (inactive)

Q: And the GI50 [13]?
A: 11.7 µM (inactive)

Q: What about the GI50 [14] of the same compound?
A: 2.3 µM (inactive)

Q: Which results are given for `COc1ccc(N2C(=O)[C@@H](N=[N+]=[N-])[C@@H]2[C@H]2COC(C)(C)O2)cc1`?
A: GI50 [2]: > 100 µM (inactive); GI50 [15]: > 100 µM (inactive); GI50 [3]: > 100 µM (inactive); GI50 [4]: > 100 µM (inactive); GI50 [5]: > 100 µM (inactive); GI50 [6]: > 100 µM (inactive); GI50 [7]: > 100 µM (inactive); GI50 [16]: > 100 µM (inactive); GI50 [8]: > 100 µM (inactive); GI50 [9]: > 100 µM (inactive); GI50 [10]: > 100 µM (inactive); GI50 [11]: > 100 µM (inactive); GI50 [12]: > 100 µM (inactive); GI50 [13]: > 100 µM (inactive); GI50 [14]: > 100 µM (inactive)

Q: `O=C(Nc1ccccc1C(=O)O)C(=O)C(C(=O)c1ccccc1-c1ccccc1)C1OC(=O)c2ccccc21` (centres undefined) was tested. Which GI50 [1] did it give?
A: 13.9 µM (inactive)

Q: And the GI50 [2]?
A: 12.6 µM (inactive)

Q: And the GI50 [15]?
A: 36 µM (inactive)

Q: What about the GI50 [3] of the same compound?
A: 18.3 µM (inactive)

Q: What about the GI50 [4] of the same compound?
A: 36.1 µM (inactive)

Q: And the GI50 [5]?
A: 16.5 µM (inactive)

Q: And the GI50 [6]?
A: 24 µM (inactive)

Q: What about the GI50 [7] of the same compound?
A: 16.1 µM (inactive)

Q: What about the GI50 [16] of the same compound?
A: 18 µM (inactive)

Q: And the GI50 [8]?
A: 18 µM (inactive)

Q: What about the GI50 [9] of the same compound?
A: 31.4 µM (inactive)

Q: And the GI50 [10]?
A: 34 µM (inactive)

Q: And the GI50 [11]?
A: 29.7 µM (inactive)

Q: And the GI50 [12]?
A: 13.6 µM (inactive)

Q: And the GI50 [13]?
A: 16.2 µM (inactive)

Q: What about the GI50 [14] of the same compound?
A: 12.2 µM (inactive)

Q: `CN(C)CCNC(=O)c1cccc2nc3cc(Cl)ccc3nc12` was tested. Which GI50 [1] did it give?
A: 2.7 µM (inactive)

Q: What about the GI50 [2] of the same compound?
A: 17.5 µM (inactive)

Q: And the GI50 [15]?
A: 4.59 µM (inactive)

Q: What about the GI50 [3] of the same compound?
A: 0.531 µM (active)

Q: And the GI50 [4]?
A: 1.18 µM (inactive)

Q: And the GI50 [5]?
A: 2.65 µM (inactive)

Q: And the GI50 [6]?
A: 1.86 µM (inactive)

Q: What about the GI50 [7] of the same compound?
A: 3.4 µM (inactive)

Q: And the GI50 [16]?
A: 4.26 µM (inactive)

Q: And the GI50 [8]?
A: 2.51 µM (inactive)

Q: And the GI50 [9]?
A: 2.56 µM (inactive)

Q: And the GI50 [10]?
A: 1.02 µM (active)

Q: What about the GI50 [11] of the same compound?
A: 1.36 µM (inactive)

Q: And the GI50 [12]?
A: 2.15 µM (inactive)

Q: What about the GI50 [13] of the same compound?
A: 2.92 µM (inactive)

Q: What about the GI50 [14] of the same compound?
A: 1.85 µM (inactive)

Q: Which results are given for `c1ccc2cc3[s+]snc3cc2c1`?
A: GI50 [1]: > 100 µM (inactive); GI50 [2]: > 100 µM (inactive); GI50 [15]: > 100 µM (inactive); GI50 [3]: > 100 µM (inactive); GI50 [4]: > 100 µM (inactive); GI50 [5]: > 100 µM (inactive); GI50 [6]: > 100 µM (inactive); GI50 [7]: > 100 µM (inactive); GI50 [16]: > 100 µM (inactive); GI50 [8]: > 100 µM (inactive); GI50 [9]: > 100 µM (inactive); GI50 [10]: > 100 µM (inactive); GI50 [11]: > 100 µM (inactive); GI50 [12]: > 100 µM (inactive); GI50 [13]: > 100 µM (inactive); GI50 [14]: > 100 µM (inactive)

Q: For `CN(C)C(=S)/N=c1\ss/c(=N\S(=O)(=O)c2ccccc2)n1C`, which GI50 [1] is on record?
A: > 100 µM (inactive)

Q: And the GI50 [2]?
A: > 100 µM (inactive)

Q: And the GI50 [15]?
A: > 100 µM (inactive)

Q: And the GI50 [3]?
A: > 100 µM (inactive)

Q: And the GI50 [4]?
A: > 100 µM (inactive)

Q: What about the GI50 [5] of the same compound?
A: > 100 µM (inactive)

Q: And the GI50 [7]?
A: > 100 µM (inactive)

Q: What about the GI50 [16] of the same compound?
A: > 100 µM (inactive)

Q: And the GI50 [8]?
A: > 100 µM (inactive)

Q: What about the GI50 [9] of the same compound?
A: > 100 µM (inactive)

Q: What about the GI50 [10] of the same compound?
A: > 100 µM (inactive)

Q: What about the GI50 [11] of the same compound?
A: > 100 µM (inactive)

Q: And the GI50 [12]?
A: > 100 µM (inactive)

Q: And the GI50 [13]?
A: > 100 µM (inactive)

Q: And the GI50 [14]?
A: > 100 µM (inactive)

Q: What does the source list for `Nc1ncnc2c1ncn2C1OC(CSCC(F)(F)F)C(O)C1O` (centres undefined)?
A: GI50 [1]: > 100 µM (inactive); GI50 [2]: > 100 µM (inactive); GI50 [15]: > 100 µM (inactive); GI50 [3]: > 100 µM (inactive); GI50 [4]: > 100 µM (inactive); GI50 [5]: > 100 µM (inactive); GI50 [6]: > 100 µM (inactive); GI50 [7]: > 100 µM (inactive); GI50 [16]: > 100 µM (inactive); GI50 [8]: > 100 µM (inactive); GI50 [9]: > 100 µM (inactive); GI50 [10]: > 100 µM (inactive); GI50 [11]: > 100 µM (inactive); GI50 [12]: > 100 µM (inactive); GI50 [13]: 45 µM (inactive); GI50 [14]: > 100 µM (inactive)

Q: Which GI50 [1] does the source give for `CCCCOCc1cc(CN2CCN(C)CC2)c(O)c2ncccc12` here?
A: > 100 µM (inactive)

Q: What about the GI50 [2] of the same compound?
A: 5.35 µM (inactive)

Q: What about the GI50 [15] of the same compound?
A: 24.6 µM (inactive)

Q: What about the GI50 [3] of the same compound?
A: 3.49 µM (inactive)

Q: And the GI50 [4]?
A: 3.26 µM (inactive)

Q: What about the GI50 [5] of the same compound?
A: 24.3 µM (inactive)

Q: And the GI50 [6]?
A: 29.6 µM (inactive)

Q: What about the GI50 [7] of the same compound?
A: 30.8 µM (inactive)

Q: And the GI50 [16]?
A: 9.66 µM (inactive)

Q: What about the GI50 [8] of the same compound?
A: 21.1 µM (inactive)

Q: And the GI50 [9]?
A: 23.6 µM (inactive)

Q: And the GI50 [10]?
A: 6.24 µM (inactive)

Q: And the GI50 [11]?
A: 31.6 µM (inactive)

Q: What about the GI50 [12] of the same compound?
A: 36.6 µM (inactive)

Q: And the GI50 [13]?
A: 26.4 µM (inactive)

Q: And the GI50 [14]?
A: 21.3 µM (inactive)

Q: `CC(C)(C)c1ccnc(/N=C2\N/C(=N\c3cc(C(C)(C)C)ccn3)c3ccccc32)c1` was tested. Which GI50 [1] did it give?
A: 21.4 µM (inactive)

Q: And the GI50 [2]?
A: 18.3 µM (inactive)

Q: What about the GI50 [15] of the same compound?
A: 26.6 µM (inactive)

Q: And the GI50 [3]?
A: 31.4 µM (inactive)

Q: And the GI50 [4]?
A: 41.3 µM (inactive)

Q: What about the GI50 [6] of the same compound?
A: > 100 µM (inactive)

Q: And the GI50 [7]?
A: 22.2 µM (inactive)

Q: What about the GI50 [16] of the same compound?
A: 32 µM (inactive)

Q: And the GI50 [8]?
A: 41.8 µM (inactive)

Q: What about the GI50 [9] of the same compound?
A: 26.1 µM (inactive)

Q: And the GI50 [10]?
A: > 100 µM (inactive)

Q: And the GI50 [11]?
A: 12.4 µM (inactive)

Q: What about the GI50 [12] of the same compound?
A: 22.3 µM (inactive)

Q: What about the GI50 [13] of the same compound?
A: 21.6 µM (inactive)

Q: What about the GI50 [14] of the same compound?
A: 24.8 µM (inactive)

Q: Which results are given for `CC1(C)C2CCC13CS(=O)(=O)N1O[C@]13C(=O)O2` (some centres undefined)?
A: GI50 [1]: > 100 µM (inactive); GI50 [2]: > 100 µM (inactive); GI50 [3]: > 100 µM (inactive); GI50 [4]: > 100 µM (inactive); GI50 [5]: > 100 µM (inactive); GI50 [6]: > 100 µM (inactive); GI50 [7]: > 100 µM (inactive); GI50 [16]: > 100 µM (inactive); GI50 [8]: > 100 µM (inactive); GI50 [9]: > 100 µM (inactive); GI50 [10]: > 100 µM (inactive); GI50 [11]: > 100 µM (inactive); GI50 [13]: > 100 µM (inactive); GI50 [14]: > 100 µM (inactive)

Q: With `[N-]=[N+]=NC(CBr)c1cn([C@H]2C[C@H](O)[C@@H](CO)O2)c(=O)[nH]c1=O` (some centres undefined) as the compound, how does the GI50 [1] read?
A: > 100 µM (inactive)

Q: And the GI50 [2]?
A: 1.99 µM (inactive)

Q: What about the GI50 [15] of the same compound?
A: > 100 µM (inactive)

Q: And the GI50 [3]?
A: > 100 µM (inactive)

Q: What about the GI50 [4] of the same compound?
A: > 100 µM (inactive)

Q: And the GI50 [5]?
A: > 100 µM (inactive)

Q: What about the GI50 [6] of the same compound?
A: > 100 µM (inactive)

Q: What about the GI50 [7] of the same compound?
A: > 100 µM (inactive)

Q: What about the GI50 [16] of the same compound?
A: > 100 µM (inactive)

Q: What about the GI50 [8] of the same compound?
A: > 100 µM (inactive)

Q: What about the GI50 [9] of the same compound?
A: > 100 µM (inactive)

Q: And the GI50 [10]?
A: > 100 µM (inactive)

Q: And the GI50 [11]?
A: > 100 µM (inactive)

Q: What about the GI50 [12] of the same compound?
A: > 100 µM (inactive)

Q: And the GI50 [13]?
A: > 100 µM (inactive)

Q: What about the GI50 [14] of the same compound?
A: > 100 µM (inactive)
